No end group written: not given here.
Columns and labels:
fsr QS circuitry [1] = target: T1, fsr QS circuitry (Enterococcus faecalis, UniProt A0ACD6TCR9); conditions: read-out: EC50 [95% CI]; previously published analog shown for comparison; ref [19]; cited from earlier work
fsr QS circuitry [2] = target: T1, fsr QS circuitry; test: β-galactosidase cell-based bacterial reporter assay, QS activation; conditions: E. faecalis pGelE-lacZ reporter strain
fsr QS circuitry [3] = target: T1, fsr QS circuitry; test: β-galactosidase reporter assay, inhibition of competitor GBAP signal; assay type: cell-based, E. faecalis; conditions: competition with GBAP

Substance | EC50 (fsr QS circuitry [1]) [nM] | activity as activator (fsr QS circuitry [2]) | inhibitory activity (fsr QS circuitry [3])
Ac-GBAP-Des(Q1N2) (Ac-SPNIFGQWM; also: cyclic, ring not given here) [Peptide 2] | 1.01 | – | –
Ac-GBAP-Des(Q1N2)[N-MeG8] [Peptide 7] | – | lost all activity | neither of these three analogs exhibit any inhibitory activity
Ac-GBAP-Des(Q1N2)[N-MeQ9] [Peptide 8] | – | lost all activity | neither of these three analogs exhibit any inhibitory activity
GBAP-F7A | > 1000 | – | –

Source: publication PMC6570535 (ACS infectious diseases, 2019)
